Target: T1, human GPR40 (Homo sapiens, UniProt O14842)
T1 construct: expressed in transfected cells; host or cells: CHO cells
Assay: Cell-based aequorin assay
Conditions: CHO cells stably transfected with GPR40 and aequorin; 0.01% HSA; aequorin luminescence; read-out: Relative EC50
Method: Cell-based aequorin assays were employed to characterize the modulatory activity of compounds on the GPR40 signaling pathway. In an exemplary assay, CHO cells were stably transfected with both GPR40 and Aequorin (Euroscreen). Cells were detached from the tissue culture dish with 2 mL of trypsin (0.25% (w/v)). Trypsinization was halted with 28 mL of Hanks Buffered Salt Solution containing 20 mM Hepes (H/HBSS) and 0.01% fatty acid-free human serum albumin (HSA). Coelantrazine is added to 1 ug/mL, and the cells were incubated for 2 hours at room temperature. Compounds were dissolved in DMSO for preparation of 10 mM stock solutions. Compounds were diluted in H/HBSS containing 0.01% HSA. Serial dilutions of the test compounds were prepared to determine dose response.
Aequorin luminescence measurements were made using an EG&G Berthold 96-well luminometer, and the response was measured over a 20 second interval after cells and compounds were mixed. The maximum relative light units was plotted to determine dose response. The EC50 (effective concentration to reach 50% maximal response) was determined from the dose response plot.
Table 1 presents representative data (EC50 values) obtained for exemplary compounds of the invention for the relative activation of human GPR40. […]

T1 sequence (O14842 whole entry): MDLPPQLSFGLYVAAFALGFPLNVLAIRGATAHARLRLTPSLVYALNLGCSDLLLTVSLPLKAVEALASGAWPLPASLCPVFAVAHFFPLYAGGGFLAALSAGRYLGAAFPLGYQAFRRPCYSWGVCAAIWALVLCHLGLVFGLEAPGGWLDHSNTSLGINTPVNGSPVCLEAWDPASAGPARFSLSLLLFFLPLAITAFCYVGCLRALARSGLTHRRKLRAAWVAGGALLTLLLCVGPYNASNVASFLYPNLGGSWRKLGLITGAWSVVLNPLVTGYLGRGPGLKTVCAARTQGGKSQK

| Compound | EC50 [µM] |
| --- | --- |
| Cc1ccc(C(CC(=O)O)c2ccc(OC3CCc4cc(Cl)ccc43)cc2)s1 (racemic) [Example 23, (+/−)-3-(4-(5-Chloro-2,3-dihydro-1H-inden-1-yloxy)phenyl)-3-(5-methylthiophen-2-yl)propanoic acid] | 1 to 10 |
| O=C(O)CC(c1ccc(OC2CCC(c3ccccc3)CC2)cc1)c1cccs1 (racemic) [Example 31, (+/−)-3-(4-(4-Phenylcyclohexyloxy)phenyl)-3-(thiophen-2-yl)propanoic acid] | 1 to 10 |
| O=C(O)CC(c1ccc(OC2Cc3ccccc3C2)cc1)c1ncco1 (racemic) [Example 32, (+/−)-3-(4-(2,3-Dihydro-1H-inden-2-yloxy)phenyl)3-(oxazol-2-yl)propanoic acid] | 1 to 10 |
| O=C(O)CC(c1ccc(OC2CCc3cc(Cl)ccc32)cc1)c1ncco1 (racemic) [Example 33, (+/−)-3-(4-(5-Chloro-2,3-dihydro-1H-inden-1-yloxy)phenyl)-3-(oxazol-2-yl)propanoic acid] | 1 to 10 |
| Cc1cnc(C(CC(=O)O)c2ccc(OC3CCc4cc(Cl)ccc43)cc2)o1 (racemic) [Example 34, (+/−)-3-(4-(5-Chloro-2,3-dihydro-1H-inden-1-yloxy)phenyl)-3-(5-methyloxazol-2-yl)propanoic acid] | 1 to 10 |
| O=C(O)CC(c1ccc(OC2Cc3ccccc3C2)cc1)c1cc(F)cc(F)c1 (racemic) [Example 36, (+/−)3-(3,5-Difluorophenyl)-3-(4-(2,3-dihydro-1H-inden-2-yloxy)phenyl)propanoic acid] | 0.1 to 1 |
| O=C(O)CC(c1ccc(OC2Cc3ccccc3C2)cc1)c1cc(F)ccc1F (racemic) [Example 37, (+/−)3-(2,5-Difluorophenyl)-3-(4-(2,3-dihydro-1H-inden-2-yloxy)phenyl)propanoic acid] | 0.1 to 1 |
| O=C(O)CC(c1ccc(OC2Cc3ccccc3C2)cc1)c1ccc(F)cc1F (racemic) [Example 38, (+/−)3-(2,4-Difluorophenyl)-3-(4-(2,3-dihydro-1H-inden-2-yloxy)phenyl)propanoic acid] | 0.1 to 1 |
| O=C(O)CC(c1ccc(OC2Cc3ccccc3C2)cc1)c1c(F)cccc1F (racemic) [Example 39, (+/−)3-(2,6-Difluorophenyl)-3-(4-(2,3-dihydro-1H-inden-2-yloxy)phenyl)propanoic acid] | 1 to 10 |
| O=C(O)CC(c1ccccc1)c1ccc(OC2CCc3cc(Br)ccc32)cc1 (racemic) [Example 41, (+/−)-3-[4-(5-Bromo-indan-1-yloxy)-phenyl]-3-phenyl-propionic acid] | 0.1 to 1 |
| O=C(O)CC(c1ccc(F)cc1)c1ccc(OC2CCc3cc(Br)ccc32)cc1 (racemic) [Example 42, (+/−)-3-[4-(5-Bromo-indan-1-yloxy)-phenyl]-3-(4-fluoro-phenyl)-propionic acid] | 0.1 to 1 |
| O=C(O)CC(c1ccc(OC2Cc3ccccc3C2)cc1)c1cccs1 (racemic) [Example 48, (+/−)-3-(4-(2,3-Dihydro-1H-inden-2-yloxy)phenyl)-3-(thiophen-2-yl)propanoic acid] | 0.1 to 1 |
| O=C(O)CC(c1ccc(OC2CCCCc3ccccc32)cc1)c1cccs1 (racemic) [Example 49, (+/−)3-(4-(6,7,8,9-Tetrahydro-5H-benzo[7]annulen-5-yloxy)phenyl)-3-(thiophen-2-yl)propanoic acid] | 1 to 10 |
| O=C(O)CC1CCCc2cc(OC3Cc4ccccc4C3)ccc21 (racemic) [Example 53, (R/S)-2-(6-(2,3-Dihydro-1H-inden-2-yloxy)-1,2,3,4-tetrahydronaphthalen-1-yl)acetic acid] | 0.1 to 1 |
| CC1(C)CCC(C)(C)c2cc(COc3ccc(C(CC(=O)O)c4cncnc4)cc3)ccc21 (racemic) [Example 79, (R/S)-3-Pyrimidin-5-yl-3-[4-(5,5,8,8-tetramethyl-5,6,7,8-tetrahydro-naphthalen-2-ylmethoxy)-phenyl]-propionic acid] | 1 to 10 |
| CC#C[C@@H](CC(=O)O)c1ccc(OC2CCc3cc(-c4cc(C)ccc4OCCCC)ccc32)cc1 (stereo partly drawn) [Example 3, (3S)-3-(4-(5-(2-Butoxy-5-methylphenyl)-2,3-dihydro-1H-inden-1-yloxy)phenyl)hex-4-ynoic acid] | 0.01 to 0.1 |
| CC#C[C@@H](CC(=O)O)c1ccc(OC2CCc3c(-c4cc(C)ccc4OCCCC)cccc32)cc1 (stereo partly drawn) [Example 8, (3S)-3-{4-[4-(2-Butoxy-5-methyl-phenyl)-indan-1-yloxy]-phenyl}-hex-4-ynoic acid] | 0.01 to 0.1 |
| CC#C[C@@H](CC(=O)O)c1ccc(OC2CCc3ccc(-c4cc(C)ccc4OCCCC)cc32)cc1 (stereo partly drawn) [Example 12, (3S)-3-{4-[6-(2-Butoxy-5-methyl-phenyl)-indan-1-yloxy]-phenyl}-hex-4-ynoic acid] | 0.01 to 0.1 |
| CC#C[C@@H](CC(=O)O)c1ccc(OC2CCc3c2ccc(OC)c3OC)cc1 (stereo partly drawn) [Example 19, (3S)-3-[4-(4,5-Dimethoxy-indan-1-yloxy)-phenyl]-hex-4-ynoic acid] | 1 to 10 |
| CC#C[C@@H](CC(=O)O)c1ccc(OC2CCc3c(OC)ccc(OC)c32)cc1 (stereo partly drawn) [Example 20, (3S)-3-[4-(4,7-Dimethoxy-indan-1-yloxy)-phenyl]-hex-4-ynoic acid] | 0.1 to 1 |
| CC#C[C@@H](CC(=O)O)c1ccc(OC2CCc3ccccc3C2)cc1 (stereo partly drawn) [Example 26, (3S)-3-[4-(1,2,3,4-Tetrahydro-naphthalen-2-yloxy)-phenyl]-hex-4-ynoic acid] | 0.1 to 1 |
| CC#CC(CC(=O)O)c1ccc(OC2CCC(c3ccccc3)CC2)cc1 [Example 29, (R,S)-3-(4-(4-phenylcyclohexyloxy)phenyl)hex-4-ynoic acid] | 0.1 to 1 |
| CC#C[C@@H](CC(=O)O)c1ccc(O[C@H]2CCc3cc(Br)ccc32)cc1 [Example 45, (S)-3-(4-((S)-5-bromo-2,3-dihydro-1H-inden-1-yloxy)phenyl)hex-4-ynoic acid] | 0.01 to 0.1 |
| CC#C[C@@H](CC(=O)O)c1ccc(OC2CCc3ccccc32)cc1 (stereo partly drawn) [Example 46, (3S)-3-(4-(2,3-Dihydro-1H-inden-1-yloxy)phenyl)hex-4-ynoic acid] | 0.01 to 0.1 |

Next, values leading:

| EC50 [µM] | Compound |
| --- | --- |
| 0.01 to 0.1 | CC#C[C@@H](CC(=O)O)c1ccc(OC2c3ccccc3CC2C)cc1 (mixture of isomers) [Example 21, (3S)-3-[4-(2-Methyl-indan-1-yloxy)-phenyl]-hex-4-ynoic acid] |
| 0.01 to 0.1 | CC#C[C@@H](CC(=O)O)c1ccc(O[C@@H]2CCc3cc(Br)ccc32)cc1 (single isomer, unassigned) [Example 44] |
| 0.01 to 0.1 | CC#C[C@@H](CC(=O)O)c1ccc(OC2CCc3cc(-c4ccc(C(F)(F)F)cc4)ccc32)cc1 (stereo partly shown) [Example 1] |
| 0.01 to 0.1 | CC#C[C@@H](CC(=O)O)c1ccc(OC2CCc3cc(Br)ccc32)cc1 (stereo partly drawn) [Example 2, (3S)-3-[4-(5-Bromo-indan-1-yloxy)-phenyl]-hex-4-ynoic acid] |
| 0.01 to 0.1 | CC#C[C@@H](CC(=O)O)c1ccc(OC2CCc3c(Br)cccc32)cc1 (stereo partly drawn) [Example 5, (3S)-3-[4-(4-Bromo-indan-1-yloxy)-phenyl]-hex-4-ynoic acid] |
| 0.01 to 0.1 | CC#C[C@@H](CC(=O)O)c1ccc(OC2CCc3c(-c4ccc(OC(F)(F)F)cc4)cccc32)cc1 (stereo partly drawn) [Example 6, (3S)-3-{4-[4-(4-Trifluoromethoxy-phenyl)-indan-1-yloxy]-phenyl}-hex-4-ynoic acid] |
| 0.01 to 0.1 | CC#C[C@@H](CC(=O)O)c1ccc(OC2CCc3c(-c4ccc(C(F)(F)F)cc4)cccc32)cc1 (stereo partly shown) [Example 7] |
| 0.01 to 0.1 | CC#C[C@@H](CC(=O)O)c1ccc(OC2CCc3ccc(-c4ccc(C(F)(F)F)cc4)cc32)cc1 (stereo partly drawn) [Example 11, (3S)-3-(4-(6-(4-(trifluoromethyl)phenyl)-2,3-dihydro-1H-inden-1-yloxy)phenyl)hex-4-ynoic acid] |
| 0.01 to 0.1 | CC#C[C@@H](CC(=O)O)c1ccc(OC2CCc3cc(F)ccc32)cc1 (stereo partly drawn) [Example 14, (3S)-3-(4-(5-Fluoro-2,3-dihydro-1H-inden-1-yloxy)phenyl)hex-4-ynoic acid] |
| < 0.01 | CC#C[C@@H](CC(=O)O)c1ccc(OC2CCc3cc(Cl)ccc32)cc1 (stereo partly drawn) [Example 15, (3S)-3-[4-(5-Chloro-indan-1-yloxy)-phenyl]-hex-4-ynoic acid] |
| 0.01 to 0.1 | CC#C[C@@H](CC(=O)O)c1ccc(OC2CCc3c(C)cccc32)cc1 (stereo partly drawn) [Example 16, (3S) 3-[4-(4-Methyl-indan-1-yloxy)-phenyl]-hex-4-ynoic acid] |
| 0.01 to 0.1 | CC#C[C@@H](CC(=O)O)c1ccc(OC2CCc3ccc(OC)cc32)cc1 (stereo partly drawn) [Example 17, (3S)-3-[4-(6-Methoxy-indan-1-yloxy)-phenyl]-hex-4-ynoic acid] |
| 0.01 to 0.1 | CC#C[C@@H](CC(=O)O)c1ccc(OC2CCc3cc(OC)ccc32)cc1 (stereo partly drawn) [Example 18, (3S)-3-[4-(5-Methoxy-indan-1-yloxy)-phenyl]-hex-4-ynoic acid] |
| 0.01 to 0.1 | CC#C[C@@H](CC(=O)O)c1ccc(OC2CCCc3ccccc32)cc1 (stereo partly drawn) [Example 24, (3S)-3-[4-(1,2,3,4-Tetrahydro-naphthalen-1-yloxy)-phenyl]-hex-4-ynoic acid] |
| 0.01 to 0.1 | CC#C[C@@H](CC(=O)O)c1ccc(OC2CCCc3c(Br)cccc32)cc1 (stereo partly drawn) [Example 25, (3S)-3-[4-(5-Bromo-1,2,3,4-tetrahydro-naphthalen-1-yloxy)-phenyl]-hex-4-ynoic acid] |
| 0.01 to 0.1 | CC#C[C@@H](CC(=O)O)c1ccc(OC2Cc3ccccc3C2)cc1 [Example 27, (3S)-3-[4-(Indan-2-yloxy)-phenyl]-hex-4-ynoic acid] |
